Measured values from BindingDB's records for doi:10.1021/jm0211063 (Sapienza University of Rome, 2003).

Tests used:
[1] = molecular target: T1, Gag-Pol polyprotein [588-1127,Y768C]/[588-1147,Y768C] (Human immunodeficiency virus 1, UniProt P04585, Y768C); test: HIV-1 RT Assay; settings: pH 7.8; 37 °C
T1 construct: 588-1127; 588-1147

[2] = molecular target: T2, Gag-Pol polyprotein [588-1027,K690N]/[588-1147,K690N] (Human immunodeficiency virus 1, UniProt P04585, K690N); test: HIV-1 RT Assay; settings: pH 7.8; 37 °C
T2 construct: 588-1027; 588-1147

Compound	IC50 [1] [nM]	IC50 [2] [nM]
Cc1cc(C)cc(S(=O)(=O)c2c(C(N)=O)[nH]c3ccc(Cl)cc23)c1 [5-chloro-3-[(3,5-dimethylbenzene)sulfonyl]-1H-indole-2-carboxamide]	130	> 5000
Cc1ccc(S(=O)(=O)c2c(C(N)=O)[nH]c3ccc(Cl)cc23)cc1 [5-chloro-3-[(4-methylbenzene)sulfonyl]-1H-indole-2-carboxamide]	110	> 5000
NC(=O)c1[nH]c2ccc(Cl)cc2c1S(=O)(=O)c1ccccc1 [5Cl3PhSO2-2IndolCONH2]	160	> 5000
